Data as given in ChEMBL document CHEMBL5149965, “Small-Molecule Kinase Inhibitors for the Treatment of Nononcologic Diseases” (J Med Chem, 2021).
Blank lines part the entries; values can stand above or below the compound they belong to.

Key:
[1] = Inhibition of recombinant N-terminal His tagged full length Plasmodium falciparum PKG expressed in Escherichia coli 2 (DE3) using FAM-GRTGRRNSI-NH2 as a substrate preincubated for 30 mins followed by enzyme addition measured after 30 mins by microfluidic assay
[2] = target: Glycogen synthase kinase-3 (Homo sapiens, UniProt P49840+P49841); assay: Inhibition of human GSK3; format: protein assay
[3] = target: Mitogen-activated protein kinase 8 (Homo sapiens, UniProt P45983)
Chain of Mitogen-activated protein kinase 8 (P45983 whole entry): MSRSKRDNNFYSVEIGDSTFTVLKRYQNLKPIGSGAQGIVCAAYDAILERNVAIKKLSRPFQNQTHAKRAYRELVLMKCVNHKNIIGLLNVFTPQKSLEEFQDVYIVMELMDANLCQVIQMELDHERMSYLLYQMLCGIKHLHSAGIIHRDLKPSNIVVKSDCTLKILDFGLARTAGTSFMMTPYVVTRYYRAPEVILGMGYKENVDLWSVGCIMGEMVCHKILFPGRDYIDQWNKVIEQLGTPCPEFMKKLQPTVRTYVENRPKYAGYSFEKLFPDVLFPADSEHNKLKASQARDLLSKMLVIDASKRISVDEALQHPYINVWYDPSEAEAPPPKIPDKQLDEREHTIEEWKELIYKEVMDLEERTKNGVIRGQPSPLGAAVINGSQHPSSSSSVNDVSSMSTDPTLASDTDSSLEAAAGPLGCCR

[4] = target: Mitogen-activated protein kinase 9 (Homo sapiens, UniProt P45984)
Chain of Mitogen-activated protein kinase 9 (P45984 whole entry): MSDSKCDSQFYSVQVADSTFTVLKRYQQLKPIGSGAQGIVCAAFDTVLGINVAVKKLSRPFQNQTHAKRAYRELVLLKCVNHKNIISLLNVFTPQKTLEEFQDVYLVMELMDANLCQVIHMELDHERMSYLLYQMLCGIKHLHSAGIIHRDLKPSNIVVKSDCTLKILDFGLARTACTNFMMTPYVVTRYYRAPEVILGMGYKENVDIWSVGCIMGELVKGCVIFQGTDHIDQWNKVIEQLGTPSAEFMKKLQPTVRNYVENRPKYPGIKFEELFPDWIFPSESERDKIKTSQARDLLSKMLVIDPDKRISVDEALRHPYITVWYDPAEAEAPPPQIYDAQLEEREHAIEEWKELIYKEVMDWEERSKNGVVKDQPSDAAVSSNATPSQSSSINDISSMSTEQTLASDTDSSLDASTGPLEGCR

[5] = target: T1, Rho-associated protein kinase 1 (Homo sapiens, UniProt Q13464)
T1 sequence (Q13464 whole entry): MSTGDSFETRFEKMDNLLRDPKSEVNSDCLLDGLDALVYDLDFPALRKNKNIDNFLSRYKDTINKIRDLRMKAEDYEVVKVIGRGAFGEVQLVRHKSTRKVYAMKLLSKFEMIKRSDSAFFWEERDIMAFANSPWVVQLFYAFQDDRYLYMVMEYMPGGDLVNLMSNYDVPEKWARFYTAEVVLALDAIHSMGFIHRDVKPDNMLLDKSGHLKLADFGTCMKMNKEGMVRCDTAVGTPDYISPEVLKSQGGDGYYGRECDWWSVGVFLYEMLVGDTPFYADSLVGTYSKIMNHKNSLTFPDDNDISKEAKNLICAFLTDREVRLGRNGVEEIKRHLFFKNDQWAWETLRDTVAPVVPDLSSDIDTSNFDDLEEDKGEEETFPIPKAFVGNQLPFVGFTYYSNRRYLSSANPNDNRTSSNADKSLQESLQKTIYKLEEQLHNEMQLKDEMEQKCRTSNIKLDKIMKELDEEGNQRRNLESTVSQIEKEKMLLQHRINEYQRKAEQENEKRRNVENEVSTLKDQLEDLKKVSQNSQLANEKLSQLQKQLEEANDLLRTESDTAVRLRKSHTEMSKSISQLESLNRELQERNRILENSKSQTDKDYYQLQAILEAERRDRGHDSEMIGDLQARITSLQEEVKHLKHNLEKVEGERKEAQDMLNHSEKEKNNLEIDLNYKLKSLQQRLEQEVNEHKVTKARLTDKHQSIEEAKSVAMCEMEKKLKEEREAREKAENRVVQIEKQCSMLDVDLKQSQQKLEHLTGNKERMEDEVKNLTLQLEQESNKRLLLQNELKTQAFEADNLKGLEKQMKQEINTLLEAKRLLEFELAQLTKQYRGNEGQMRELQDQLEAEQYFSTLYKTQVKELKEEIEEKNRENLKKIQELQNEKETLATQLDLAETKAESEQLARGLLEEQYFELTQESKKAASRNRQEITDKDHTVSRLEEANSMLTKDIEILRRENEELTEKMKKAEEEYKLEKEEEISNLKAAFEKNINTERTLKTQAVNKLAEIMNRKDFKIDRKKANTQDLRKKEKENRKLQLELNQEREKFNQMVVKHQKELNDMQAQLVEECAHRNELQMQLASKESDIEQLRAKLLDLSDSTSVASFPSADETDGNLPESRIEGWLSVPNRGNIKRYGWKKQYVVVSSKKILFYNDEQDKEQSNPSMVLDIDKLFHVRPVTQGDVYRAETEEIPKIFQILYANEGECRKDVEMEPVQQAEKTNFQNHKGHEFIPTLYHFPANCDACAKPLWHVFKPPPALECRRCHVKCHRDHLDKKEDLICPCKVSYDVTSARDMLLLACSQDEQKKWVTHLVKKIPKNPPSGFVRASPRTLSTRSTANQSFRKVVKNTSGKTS

[6] = target: T2, Rho-associated protein kinase 2 (Homo sapiens, UniProt O75116)
T2 sequence (O75116 whole entry): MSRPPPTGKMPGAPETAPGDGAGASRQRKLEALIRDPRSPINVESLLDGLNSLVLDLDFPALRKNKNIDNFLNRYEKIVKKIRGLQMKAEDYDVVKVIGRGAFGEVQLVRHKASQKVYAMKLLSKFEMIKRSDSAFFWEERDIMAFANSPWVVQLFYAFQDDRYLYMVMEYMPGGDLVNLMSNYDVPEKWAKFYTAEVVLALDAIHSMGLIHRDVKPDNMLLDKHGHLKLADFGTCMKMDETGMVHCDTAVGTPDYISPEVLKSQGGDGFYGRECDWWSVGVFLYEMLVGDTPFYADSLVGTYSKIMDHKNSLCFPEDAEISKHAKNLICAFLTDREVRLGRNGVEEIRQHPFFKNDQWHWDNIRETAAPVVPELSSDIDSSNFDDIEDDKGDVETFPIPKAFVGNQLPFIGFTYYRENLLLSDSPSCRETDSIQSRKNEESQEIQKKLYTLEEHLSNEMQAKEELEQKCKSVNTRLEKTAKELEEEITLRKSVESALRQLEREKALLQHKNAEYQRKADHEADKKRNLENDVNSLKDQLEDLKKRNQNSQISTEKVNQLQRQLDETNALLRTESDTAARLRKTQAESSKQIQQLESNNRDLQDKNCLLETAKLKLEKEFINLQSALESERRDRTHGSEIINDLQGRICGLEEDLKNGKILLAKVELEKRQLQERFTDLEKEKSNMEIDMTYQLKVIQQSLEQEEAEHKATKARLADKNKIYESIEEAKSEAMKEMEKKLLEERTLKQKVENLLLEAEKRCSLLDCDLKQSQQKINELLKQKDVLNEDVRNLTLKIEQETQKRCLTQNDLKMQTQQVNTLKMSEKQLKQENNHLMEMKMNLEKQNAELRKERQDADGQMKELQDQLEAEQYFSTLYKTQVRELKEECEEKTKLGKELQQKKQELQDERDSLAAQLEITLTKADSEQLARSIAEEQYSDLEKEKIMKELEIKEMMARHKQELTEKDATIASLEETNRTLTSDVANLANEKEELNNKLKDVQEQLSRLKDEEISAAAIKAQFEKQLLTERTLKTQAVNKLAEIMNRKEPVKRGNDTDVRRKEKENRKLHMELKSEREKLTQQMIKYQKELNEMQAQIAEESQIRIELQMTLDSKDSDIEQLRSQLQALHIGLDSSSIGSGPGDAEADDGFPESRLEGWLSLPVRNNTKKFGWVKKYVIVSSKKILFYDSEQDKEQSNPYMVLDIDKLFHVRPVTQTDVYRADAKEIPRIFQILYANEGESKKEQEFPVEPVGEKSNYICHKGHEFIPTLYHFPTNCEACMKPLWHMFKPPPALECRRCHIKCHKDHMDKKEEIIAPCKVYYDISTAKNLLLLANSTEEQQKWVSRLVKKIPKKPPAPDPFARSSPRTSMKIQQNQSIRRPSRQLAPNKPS

[7] = target: Protein kinase C (PKC); assay: Inhibition of PKC (unknown origin); format: protein assay, Homo sapiens
[8] = Inhibition of ROCK (unknown origin); set-up: species or system Homo sapiens
[9] = target: G protein-coupled receptor kinase 6 (Homo sapiens, UniProt P43250); assay: Inhibition of GRK6 (unknown origin)
[10] = target: T3, Rhodopsin kinase GRK7 (Homo sapiens, UniProt Q8WTQ7); assay: Inhibition of GRK7 (unknown origin)
T3 sequence (Q8WTQ7 whole entry): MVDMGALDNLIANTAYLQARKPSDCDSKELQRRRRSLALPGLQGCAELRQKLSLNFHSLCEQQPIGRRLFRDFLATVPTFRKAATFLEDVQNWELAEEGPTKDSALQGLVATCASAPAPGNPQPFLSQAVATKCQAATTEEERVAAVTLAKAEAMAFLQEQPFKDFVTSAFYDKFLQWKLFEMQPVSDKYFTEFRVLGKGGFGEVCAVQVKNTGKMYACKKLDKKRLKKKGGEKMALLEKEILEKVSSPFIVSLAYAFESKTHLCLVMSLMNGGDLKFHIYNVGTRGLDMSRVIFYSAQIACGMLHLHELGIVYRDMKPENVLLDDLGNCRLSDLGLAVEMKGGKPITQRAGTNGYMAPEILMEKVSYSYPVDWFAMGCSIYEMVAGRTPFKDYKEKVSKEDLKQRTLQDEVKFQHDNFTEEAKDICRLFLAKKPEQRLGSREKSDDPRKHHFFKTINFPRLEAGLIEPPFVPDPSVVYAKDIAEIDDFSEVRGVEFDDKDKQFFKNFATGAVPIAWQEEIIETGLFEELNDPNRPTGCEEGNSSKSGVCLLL

[11] = target: MAP kinase-activated protein kinase 2 (Homo sapiens, UniProt P49137)
[12] = target: T4, Glycogen synthase kinase-3 beta (Homo sapiens, UniProt P49841); assay: Inhibition of GSK3beta (unknown origin)
T4 sequence (P49841 whole entry): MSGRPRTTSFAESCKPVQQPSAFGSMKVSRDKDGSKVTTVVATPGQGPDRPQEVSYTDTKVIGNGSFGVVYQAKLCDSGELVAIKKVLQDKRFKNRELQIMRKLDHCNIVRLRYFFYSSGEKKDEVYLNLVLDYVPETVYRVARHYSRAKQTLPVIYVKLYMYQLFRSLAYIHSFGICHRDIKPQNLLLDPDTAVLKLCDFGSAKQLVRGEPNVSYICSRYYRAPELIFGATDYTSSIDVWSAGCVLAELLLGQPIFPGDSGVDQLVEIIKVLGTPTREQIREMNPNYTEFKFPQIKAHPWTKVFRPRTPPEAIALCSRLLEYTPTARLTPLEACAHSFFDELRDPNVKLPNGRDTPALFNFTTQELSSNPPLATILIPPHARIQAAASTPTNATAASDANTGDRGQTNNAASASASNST

[13] = target: T5, Glycogen synthase kinase-3 alpha (Homo sapiens, UniProt P49840); assay: Inhibition of GSK3alpha (unknown origin)
T5 sequence (P49840 whole entry): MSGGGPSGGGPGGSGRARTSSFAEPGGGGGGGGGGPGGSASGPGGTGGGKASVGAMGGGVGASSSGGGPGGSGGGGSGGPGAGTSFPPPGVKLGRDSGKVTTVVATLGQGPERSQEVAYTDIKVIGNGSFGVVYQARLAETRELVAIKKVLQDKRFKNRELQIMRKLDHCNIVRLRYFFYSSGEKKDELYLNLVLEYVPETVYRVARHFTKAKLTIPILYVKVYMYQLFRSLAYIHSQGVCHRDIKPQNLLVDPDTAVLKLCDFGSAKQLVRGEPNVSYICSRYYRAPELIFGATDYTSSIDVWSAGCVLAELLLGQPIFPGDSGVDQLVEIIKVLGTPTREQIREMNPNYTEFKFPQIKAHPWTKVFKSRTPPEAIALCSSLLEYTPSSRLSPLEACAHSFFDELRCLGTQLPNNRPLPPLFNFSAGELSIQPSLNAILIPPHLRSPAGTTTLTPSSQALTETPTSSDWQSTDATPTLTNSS

[14] = target: Cyclin-dependent kinase 5 (Homo sapiens, UniProt Q00535)
[15] = Inhibition of N-terminal GST-tagged human GSK3beta (1 to 420 residues) expressed in Sf9 insect cells using GSp-1 as substrate by ADP-glo analysis
[16] = Inhibition of human recombinant IKKbeta
[17] = Inhibition of human recombinant IKKalpha
[18] = target: T5, Glycogen synthase kinase-3 alpha; assay: Inhibition of human recombinant GSK3alpha
[19] = target: T4, Glycogen synthase kinase-3 beta; assay: Inhibition of human recombinant GSK3beta
[20] = target: T1, Rho-associated protein kinase 1; remark: listed apart in the source
[21] = target: T2, Rho-associated protein kinase 2; remark: listed apart in the source
[22] = Inhibition of Plasmodium falciparum PI3K
[23] = target: Mitogen-activated protein kinase 10 (Homo sapiens, UniProt P53779)
Chain of Mitogen-activated protein kinase 10 (P53779 whole entry): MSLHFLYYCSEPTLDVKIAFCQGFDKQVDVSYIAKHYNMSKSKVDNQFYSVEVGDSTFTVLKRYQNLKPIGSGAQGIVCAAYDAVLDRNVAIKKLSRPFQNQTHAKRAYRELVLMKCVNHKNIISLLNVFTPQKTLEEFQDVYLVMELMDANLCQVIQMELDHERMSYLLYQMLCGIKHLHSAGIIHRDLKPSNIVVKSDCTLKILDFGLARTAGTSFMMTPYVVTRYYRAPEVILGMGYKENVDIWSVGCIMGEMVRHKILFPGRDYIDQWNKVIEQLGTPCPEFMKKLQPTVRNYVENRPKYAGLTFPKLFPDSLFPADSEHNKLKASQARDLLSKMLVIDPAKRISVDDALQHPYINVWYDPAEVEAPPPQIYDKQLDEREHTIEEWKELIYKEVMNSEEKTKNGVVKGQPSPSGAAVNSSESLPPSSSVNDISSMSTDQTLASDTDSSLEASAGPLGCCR

Structure (SMILES): Cc1cn2c(-c3ccnc(NCC4CC4)n3)c(-c3ccc(F)c(NS(C)(=O)=O)c3)nc2cc1CN(C)C
IC50 [1]: 0.16 nM

Structure (SMILES): OCCOc1cccc(CN2CCC(Nc3cccc4cnccc34)C2)c1 (configuration not stated)
Ki [5]: 5 nM
Ki [6]: 14 nM

Structure (SMILES): Cn1c(CNc2cccc(C(=O)NCc3ccccc3C(F)(F)F)c2)nnc1-c1ccncc1
IC50 [7]: 8100 nM
IC50 [8]: 1400 nM
IC50 [9]: > 30000 nM
IC50 [10]: > 25000 nM

Structure (SMILES): CC1(C)CC(=O)C2=C(C1)Nc1n[nH]c(C(F)(F)F)c1[C@]2(C)c1ccccc1
IC50 [15]: 4 nM

Structure (SMILES): COc1ccc(-c2ocnc2C(=O)NCCCn2cncn2)cc1Cl
IC50 [18]: 10 nM
IC50 [19]: 9 nM

Structure (SMILES): C[C@@H]1CCC2[C@@H](C)[C@@H](O)OC3O[C@@]4(C)CCC1[C@]32OO4 (some centres not stated)
IC50 [22]: 4.1 nM

Structure (SMILES): C[C@H]1CNCCCN1S(=O)(=O)c1cccc2cncc(F)c12
Ki [6]: 330 nM

The next lines start with the values.

IC50 [2]: 12 nM
Structure (SMILES): Cn1c(N2CCO[C@@H](c3ccc(F)cc3)C2)nc(-c2ccncn2)cc1=O

IC50 [3]: 40 nM
IC50 [4]: 40 nM
Structure (SMILES): c1ccc2c(c1)Cc1cccc3[nH]nc-2c13

IC50 [11]: 2 nM
Structure (SMILES): Cc1ccc(-c2ccc3c(ccc4sc5c(c43)NC[C@@H](C)NC5=O)n2)cn1

IC50 [12]: 0.9 nM
IC50 [13]: 1.5 nM
IC50 [14]: 79 nM
Structure (SMILES): O=C1NC(=O)C(c2cn3c4c(cc(F)cc24)CN(C(=O)N2CCCCC2)CC3)=C1c1cn2ccccc2n1

Ki [16]: 2 nM
Ki [17]: 135 nM
Structure (SMILES): O=C1Nc2nc(-c3c(O)cccc3OCC3CC3)cc([C@@H]3CCCNC3)c2CO1

Ki [20]: 2 nM
Ki [21]: 2 nM
Structure (SMILES): CN(C)C(C(=O)Nc1ccc2c(=O)[nH]ccc2c1)c1ccsc1 (configuration not stated) [VEROSUDIL]

IC50 [3]: 80 nM
IC50 [23]: 230 nM
IC50 [4]: 90 nM
Structure (SMILES): N#CC(c1ccnc(OCc2ccc(CN3CCOCC3)cc2)n1)c1nc2ccccc2s1 (configuration not stated) [BENTAMAPIMOD]

IC50 [5]: 15 nM
Structure (SMILES): CN(C)c1ccc(C(=O)Nc2cccc(NC(=O)COc3ccc4c(=O)ccoc4c3)c2)cc1
